{"source": "PubChem BioAssay AID463229", "about": "(Broad Institute, 2010)"}
{"tested_on": "INS-1E rat beta cells, no cytokines, CellTiter-Glo ATP, 48 h", "assay": "ATP level change in INS-1E without cytokines, dose response, counter-screen for beta-cell apoptosis protection project, INS-1E rat cells, ATP luminescence, cherry pick (AID 463229)", "units": {"AC50": "µM"}}
{"compound": "CCc1ccc(S(=O)(=O)/N=C2\\C=C(Nc3ccc(C(=O)O)cc3)C(=O)c3ccccc32)cc1", "AC50": 14.7}
{"compound": "O=[N+]([O-])c1ccc(-c2nc3ccc([N+](=O)[O-])cc3[nH]2)cc1", "AC50": 6.93}
{"compound": "COc1ccc(C2CC(c3ccc4ccccc4c3OC(C)=O)=NN2C(C)=O)cc1", "note": "(configuration not stated)", "AC50": 8.47}
{"compound": "CCS(=O)(=O)c1ccc(OC)c(N=Nc2ccc(O)c3ncccc23)c1", "AC50": 9.84}
{"compound": "C/C(=N\\NC(=O)C(C)Oc1ccc([N+](=O)[O-])cc1)c1ccccn1", "note": "(configuration not stated)", "AC50": 4.2}
{"compound": "Cc1ccc(-n2cccc2C(=S)N=P(N(C)C)(N(C)C)N(C)C)cc1", "AC50": 7.11}
{"compound": "O=C(Nc1nc2ccccc2[nH]1)c1ccccc1F", "AC50": 2.14}
{"compound": "Clc1ccc(C[n+]2c(-c3ccccc3)cc(-c3ccccc3)cc2-c2ccccc2)cc1", "AC50": 2.01}
{"compound": "Cc1ccc(NC(=O)C2=C(c3ccccc3)S(=O)(=O)CCS2(=O)=O)cc1", "AC50": 12.6}
{"compound": "CCN(CC)c1ccc(/C=N/Nc2nc(C)cc(C)n2)c(O)c1", "AC50": 15.8}
{"compound": "COc1ccc(CC2(CO)CCN(CC3=Cc4cc(Cl)ccc4OC3)CC2)cc1", "AC50": 4.18}
{"compound": "COc1cc(Br)cc(/C=N/NC(=O)Cc2ccc(C(F)(F)F)cc2[N+](=O)[O-])c1O", "AC50": 14.7}
{"compound": "O=[N+]([O-])c1ccc(N2CCN(C(=S)NCc3ccc(Cl)cc3)CC2)cc1", "AC50": 10.3}
{"compound": "O=c1c2ccccc2nc(COc2ccccc2)n1/N=C/c1ccc(O)cc1O", "AC50": 15.9}
{"compound": "CC(C)C(=O)NC(=S)/C=C1/N(C)c2ccccc2C1(C)C", "AC50": 7.7}
{"compound": "COc1cc(Cl)c(NC2=CC(=O)C(=O)c3ccccc32)c(OC)c1", "AC50": 8.01}
{"compound": "CCCCCCn1c2c(c(=N)c3c1CCC3)CCC2", "AC50": 1.88}
{"compound": "CCc1ccc(-n2cc(-c3ccc(F)cc3)[n+]3c2SCCC3)cc1", "AC50": 0.413}
{"compound": "O=C1C=C(N2CCOCC2)c2ccccc2C1=O", "AC50": 6.13}
{"compound": "O=c1c2c(nc3c(-c4ccc(Cl)cc4)c[nH]n13)CCCC2", "AC50": 7.43}
{"compound": "CCn1c(-c2ccccc2)c(C(=O)CCl)c2ccccc21", "AC50": 11.6}
{"compound": "C=CCn1c(C)c(/C=C/c2cc[n+](C)cc2)c2ccccc21", "AC50": 5.99}
{"compound": "FC(F)(F)c1cnc(NNC(=S)Nc2ccc(Cl)cc2)c(Cl)c1", "AC50": 6.99}
{"compound": "Oc1ccc(CCNc2ncnc3ccc(Cl)cc23)cc1", "AC50": 5.59}
{"compound": "O=C(Nc1nc2ccc([N+](=O)[O-])cc2s1)c1ccc(S(=O)(=O)N2CCCc3ccccc32)cc1", "AC50": 2.63}
{"compound": "CCN1CCN(C2=C(NS(=O)(=O)c3ccccc3)C(=O)c3ccccc3C2=O)CC1", "AC50": 20.3}
{"compound": "Cc1ccccc1Oc1cc(-n2ncc(Cl)c(Cl)c2=O)ncn1", "AC50": 3.98}
{"compound": "O=C(NCc1cccnc1)c1ccc(NC(=O)c2ccc(Br)cc2)cc1", "AC50": "< 0.195"}
{"compound": "CC1=NN(c2nc3ccccc3[nH]2)C(=O)/C1=C/N(C)C", "AC50": 2.9}
{"compound": "CC1=C/C(=N\\OS(=O)(=O)c2ccccc2)C(C(C)C)=CC1=O", "AC50": 6.84}
{"compound": "CC(=O)C1=NN(c2ccccc2)C(c2cccs2)N1c1ccc(N(C)C)cc1", "note": "(configuration not stated)", "AC50": 3.56}
{"compound": "COC(=O)c1ccc(NC(=O)c2cccnc2)cc1", "AC50": 7.58}
{"compound": "Cc1c(C(=O)Nc2nc(-c3ccccn3)cs2)oc2ccccc12", "AC50": 17.4}
{"compound": "Cc1cc(C)c2nc(NNC(=O)c3ccc(S(=O)(=O)N4CCc5ccccc5C4)cc3)sc2c1", "AC50": 3.39}
{"compound": "COc1cc(N/N=C/c2ccccc2O)ncn1", "AC50": 16.2}
{"compound": "COc1ccc(C2/C=C\\CN(C(=O)c3ccc(C)cc3)[C@H](Cc3ccccc3)C(=O)N2Cc2ccc(F)cc2)cc1", "note": "(some centres not stated)", "AC50": 7.33}
{"compound": "Cn1nc(-c2ccc(Cl)cc2)nc2c(=O)n(C)c(=O)nc1-2", "AC50": 0.508}
{"compound": "Cc1[nH]n(-c2ccccc2)c(=O)c1/C=N/NC(=O)COc1ccccc1[N+](=O)[O-]", "AC50": 8.45}
{"compound": "COC(=O)c1cc(=O)n(CCc2ccccc2F)c(=Nc2ccc(F)c(Cl)c2)s1", "AC50": 11.1}
{"compound": "O=C(N/N=C/c1cc(Cl)ccc1O)c1ccccc1Br", "AC50": 8.9}
{"compound": "C=C1C(O)[C@@H]2O[C@]3(CC[C@H](/C=C/C(C)[C@@H]4CC(C)=CC5(O[C@H](C[C@@](C)(O)CO)CCC5O)O4)O3)CC[C@H]2O[C@@H]1C(O)CC(C)[C@H]1OC2(CCCCO2)CCC1C", "note": "(some centres not stated)", "AC50": 10.7}
{"compound": "Cc1cc(Nc2nc3ccccc3nc2Cl)n(-c2ccc([N+](=O)[O-])cc2)n1", "AC50": 12}
